This passage reports MIC results from US4292309A, “Antibiotics C-14482 B1, B2 and B3” (Takeda Chemical Industries, Ltd., priority 1979, dated 1981).

One assay has as its system Strain IFO 13725. Kind of assay: Susceptibility toward antibiotic (minimum inhibition concentration). The format is cell-based, Nocardia sp. No. C-14482. The conditions noted are these: Nocardia. The text has this: (§1) For example, a conventional mutagenesis effected with the strain IFO 13725 as the parent strain yields the strain IFO 13887, a variant capable of producing advantageously Antibiotic C-14482 B. This strain has the capability to produce C-14482 B in increased quantities as compared with the parent strain thereof, and is similar in taxonomical characteristics to the parent strain, except the physiological properties shown in Table 4.

The next assay relates to Strain IFO 13887. The description is as above. The class given is cell-based, Nocardia sp. No. C-14482. The note with it: Nocardia.
Excerpt: as §1

The mark [1] stands for this setting: IFO13725, Strain IFO 13725, read-out: minimum inhibition concentration.
Where [2] appears, read: IFO13887, Strain IFO 13887, read-out: minimum inhibition concentration.

Each structure is given as a SMILES string. Values after ≈ are worked out from the molar mass of the structure shown. Where two headings read alike, the source gives them in different places. A value given as a limit tells only on which side of the number the result lay.

On to `O=C(N[C@H](CO)[C@H](O)c1ccc([N+](=O)[O-])cc1)C(Cl)Cl` [Chloramphenicol], for which the MIC was determined as 10 µg/mL (≈ 30.9 µM) in the assay with Strain IFO 13725 (setting [1]) and 5 µg/mL (≈ 15.5 µM) with Strain IFO 13887 (setting [2]).
On the same counts, the results for `CCC[C@@H]1C[C@@H](C(=O)N[C@@H]([C@H]2O[C@H](SC)[C@H](O)[C@@H](O)[C@H]2O)[C@@H](C)O)N(C)C1` [Lincomycin] are 5 µg/mL (≈ 12.3 µM) and 20 µg/mL (≈ 49.2 µM).
With `[H]/N=C(/N)N[C@H]1[C@H](O)[C@@H](O)[C@H](O[C@@H]2O[C@@H](C)[C@](O)(C=O)[C@H]2O[C@@H]2O[C@@H](CO)[C@H](O)[C@@H](O)[C@@H]2NC)[C@@H](N/C(N)=N\[H])[C@@H]1O` [Streptomycin], the MIC in the assay on Strain IFO 13725 (setting [1]) was determined as 1 µg/mL (≈ 1.72 µM); with Strain IFO 13887 (setting [2]) it was 5 µg/mL (≈ 8.6 µM).
The like results for `CC1(C)S[C@@H]2[C@H](NC(=O)Cc3ccccc3)C(=O)N2[C@H]1C(=O)O` [Penicillin G] were, in that order, 10 µg/mL (≈ 29.9 µM) and 50 µg/mL (≈ 150 µM).
As for `CN(C)C1C(=O)C(C(N)=O)=C(O)C2(O)C(=O)C3=C(O)c4c(O)cccc4C(C)(O)C3CC12` (stereo not drawn) [Tetracycline], the MIC with Strain IFO 13725 (IFO13725, read-out: minimum inhibition concentration) is 0.5 µg/mL (≈ 1.13 µM); in the assay on Strain IFO 13887 (IFO13887, read-out: minimum inhibition concentration), 1 µg/mL (≈ 2.25 µM).
As to `CO[C@H]1/C=C/O[C@@]2(C)Oc3c(C)c(O)c4c(O)c(c(/C=N/N5CCN(C)CC5)c(O)c4c3C2=O)NC(=O)/C(C)=C\C=C\[C@H](C)[C@H](O)[C@@H](C)[C@@H](O)[C@@H](C)[C@H](OC(C)=O)[C@@H]1C` [Rifampicin], the MIC in the assay on Strain IFO 13725 (setting [1]) and with Strain IFO 13887 (setting [2]) was < 0.1 µg/mL throughout.
